Experimental data as given in patent publication US20250084056A1, “SUBSTITUTED OXOISOINDOLINYL PIPERIDINE-2,6-DIONE COMPOUNDS” (BRISTOL-MYERS SQUIBB COMPANY, priority 2023, published 2025).

Key:
Type in all cases: cell-based
[1] = system: Phospho-Rb (Ser807/811); experiment: Phospho-Retinoblastoma (pRB) Cellular Assay; conditions: Homo sapiens, OVCAR-3, NIH OVCAR3 cells, 24 hours; for IC50: concentration giving 50% response; for Emax: maximum response, reference compound at 10 μM = 100%, read-out: pRB Ymax
How it was run: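 Phospho-Rb (Ser807/811) kit read-out on EnVision after lysis (≥4 h, room temperature, dark) of OVCAR3 cells exposed to compound dilutions for 24 h. IC50 and maximum response Ymax are relative to a 10 μM reference compound defining 100%.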

[2] = target: Cyclin E1 (Homo sapiens, UniProt P24864+Q96SW2); experiment: Cyclin E1 Cellular Degradation Assay (MSD); design: endogenous in cells; host or cells: OVCAR3; conditions: for DC50 / Dmax: Cyclin E1 cellular degradation; for Dmax: maximum degradation; for Ratio of GSPT1 DC50/Cyclin E1 DC50: selectivity for degradation of Cyclin E1 over GSPT1
Sequence of Cyclin E1 (P24864 whole entry): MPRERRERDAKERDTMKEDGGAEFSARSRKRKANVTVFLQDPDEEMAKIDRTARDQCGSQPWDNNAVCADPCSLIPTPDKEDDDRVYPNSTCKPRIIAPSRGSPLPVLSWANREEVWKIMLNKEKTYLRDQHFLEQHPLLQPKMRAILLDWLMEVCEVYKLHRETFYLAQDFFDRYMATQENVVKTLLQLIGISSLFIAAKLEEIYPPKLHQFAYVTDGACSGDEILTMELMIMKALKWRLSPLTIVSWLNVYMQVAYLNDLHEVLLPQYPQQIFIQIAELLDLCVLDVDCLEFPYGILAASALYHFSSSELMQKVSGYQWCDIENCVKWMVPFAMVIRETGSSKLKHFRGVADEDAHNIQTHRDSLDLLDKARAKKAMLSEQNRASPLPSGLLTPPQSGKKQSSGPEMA
Sequence of Cyclin E1 (Q96SW2 whole entry): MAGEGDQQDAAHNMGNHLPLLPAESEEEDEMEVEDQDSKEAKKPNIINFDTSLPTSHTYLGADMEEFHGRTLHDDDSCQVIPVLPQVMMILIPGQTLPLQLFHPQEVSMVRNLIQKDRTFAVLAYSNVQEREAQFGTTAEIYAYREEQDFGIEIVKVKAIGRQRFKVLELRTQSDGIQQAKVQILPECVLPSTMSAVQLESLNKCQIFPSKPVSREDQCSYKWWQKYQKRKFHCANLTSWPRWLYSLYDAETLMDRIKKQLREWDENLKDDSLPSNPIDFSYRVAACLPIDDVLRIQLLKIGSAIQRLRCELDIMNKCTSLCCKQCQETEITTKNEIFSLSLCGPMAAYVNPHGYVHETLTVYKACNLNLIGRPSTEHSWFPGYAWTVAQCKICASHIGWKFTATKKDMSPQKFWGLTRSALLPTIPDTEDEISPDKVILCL
Sequence of Cyclin E1 (Q16531 whole entry partner): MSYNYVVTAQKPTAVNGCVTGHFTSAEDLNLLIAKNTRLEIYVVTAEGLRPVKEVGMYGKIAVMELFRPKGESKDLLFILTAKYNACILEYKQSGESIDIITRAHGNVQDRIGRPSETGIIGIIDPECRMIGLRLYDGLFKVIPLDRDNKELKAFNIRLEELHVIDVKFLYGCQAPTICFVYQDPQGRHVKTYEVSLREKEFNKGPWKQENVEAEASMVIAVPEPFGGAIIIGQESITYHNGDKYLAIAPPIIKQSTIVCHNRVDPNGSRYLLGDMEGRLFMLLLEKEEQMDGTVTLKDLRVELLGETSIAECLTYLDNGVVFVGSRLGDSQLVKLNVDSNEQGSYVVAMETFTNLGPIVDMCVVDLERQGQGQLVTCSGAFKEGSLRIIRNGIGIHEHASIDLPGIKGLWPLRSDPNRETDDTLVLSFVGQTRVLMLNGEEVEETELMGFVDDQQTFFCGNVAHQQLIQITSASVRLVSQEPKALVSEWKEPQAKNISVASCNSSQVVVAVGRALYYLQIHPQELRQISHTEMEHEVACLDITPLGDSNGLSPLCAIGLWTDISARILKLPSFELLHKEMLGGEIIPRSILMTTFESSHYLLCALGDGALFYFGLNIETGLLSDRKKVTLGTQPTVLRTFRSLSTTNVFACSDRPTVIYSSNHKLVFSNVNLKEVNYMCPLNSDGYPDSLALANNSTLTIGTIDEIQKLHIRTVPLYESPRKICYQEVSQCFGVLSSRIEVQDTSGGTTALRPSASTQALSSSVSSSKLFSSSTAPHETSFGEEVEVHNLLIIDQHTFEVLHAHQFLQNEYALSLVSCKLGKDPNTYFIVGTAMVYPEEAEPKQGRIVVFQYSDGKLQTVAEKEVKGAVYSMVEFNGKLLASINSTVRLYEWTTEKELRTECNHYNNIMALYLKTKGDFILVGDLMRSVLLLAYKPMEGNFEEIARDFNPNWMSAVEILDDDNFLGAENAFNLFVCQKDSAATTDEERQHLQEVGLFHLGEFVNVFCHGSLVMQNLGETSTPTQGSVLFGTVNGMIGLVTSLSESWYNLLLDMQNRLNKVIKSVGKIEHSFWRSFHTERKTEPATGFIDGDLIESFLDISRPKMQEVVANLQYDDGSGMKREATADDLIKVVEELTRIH
How it was run: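 Cyclin E1 remaining after 24 h compound exposure of OVCAR3 cells was quantified in lysates by electrochemiluminescent MSD sandwich assay. DC50 (50% response concentration) and Dmax (maximum response) were calculated, with 110% response set by a reference compound at […].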

[3] = target: GSPT1 (Homo sapiens, UniProt P15170+Q96SW2); experiment: GSPT1 Cellular Degradation Assay (DF15-GSPT1-ePL); design: expressed in transfected cells; conditions: DF15-GSPT1-ePL cells, 20 hours
Sequence of GSPT1 (P15170 whole entry, the tested form may be a part): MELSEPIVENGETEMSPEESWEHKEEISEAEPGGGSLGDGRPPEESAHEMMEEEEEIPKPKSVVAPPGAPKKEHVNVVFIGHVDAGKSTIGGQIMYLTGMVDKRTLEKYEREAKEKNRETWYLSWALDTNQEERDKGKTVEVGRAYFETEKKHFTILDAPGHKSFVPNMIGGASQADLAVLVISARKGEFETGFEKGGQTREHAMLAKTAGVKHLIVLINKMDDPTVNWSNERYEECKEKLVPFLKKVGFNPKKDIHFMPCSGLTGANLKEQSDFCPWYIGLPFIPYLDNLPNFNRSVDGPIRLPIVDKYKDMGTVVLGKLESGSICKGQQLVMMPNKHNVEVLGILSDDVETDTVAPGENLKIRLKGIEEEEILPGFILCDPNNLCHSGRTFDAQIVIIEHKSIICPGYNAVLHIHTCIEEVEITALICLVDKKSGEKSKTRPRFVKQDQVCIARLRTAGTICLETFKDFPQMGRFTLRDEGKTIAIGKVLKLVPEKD
Sequence of GSPT1 (Q96SW2 whole entry, the tested form may be a part): as the sequence (Q96SW2 whole entry) above
Sequence of GSPT1 (Q16531 whole entry partner, the tested form may be a part): as the sequence (Q16531 whole entry partner) above
How it was run: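 DC50 and Dmax were derived from chemiluminescence, with 75% response set by the reference compound at […]. Readout was ePL enzyme-fragment complementation in a DF15 line expressing chimeric GSPT1. Cells were exposed to compound for 20 h at 37 °C in RPMI 1640 with 10% FBS, cooled 30 min, then lysed with substrate for 60 min.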

IC50 [1] [nM] | DC50 [2] [nM] | Dmax [2] [%] | Ratio of GSPT1 DC50/Cyclin E1 DC50 [2] | DC50 [3] [nM] | Dmax [3] [%] | Structure (SMILES) | Emax [1] [%]
50 | 37 | 108 | >380 | > 14000 | 7 | COc1cc(Oc2ccc(F)cc2Cl)ccc1NC(=O)OCc1ccc2c(c1OC)C(=O)N(C1CCC(=O)NC1=O)C2 (centres unmarked) [Example 104, [2-(2,6-dioxopiperidin-3-yl)-4-methoxy-3-oxo-2,3-dihydro-1H-isoindol-5-yl]methyl N-[4-(2-chloro-4-fluorophenoxy)-2-methoxyphenyl]carbamate] | 118
130 | 161 | 107 | >87 | > 14000 | 46 | COc1c(COC(=O)Nc2ccc(Oc3cccc(F)c3)cc2F)ccc2c1C(=O)N(C1CCC(=O)NC1=O)C2 (centres unmarked) [Example 16, [2-(2,6-dioxopiperidin-3-yl)-4-methoxy-3-oxo-2,3-dihydro-1H-isoindol-5-yl]methyl N-[2-fluoro-4-(3-fluorophenoxy)phenyl]carbamate] | 105
112 | 129 | 112 | >108 | > 14000 | 38 | COc1c(COC(=O)Nc2ccc(Oc3cc(F)c(F)cc3F)cc2C)ccc2c1C(=O)N(C1CCC(=O)NC1=O)C2 (centres unmarked) [Example 45, [2-(2,6-dioxopiperidin-3-yl)-4-methoxy-3-oxo-2,3-dihydro-1H-isoindol-5-yl]methyl N-[2-methyl-4-(2,4,5-trifluorophenoxy)phenyl]carbamate] | 116
364 | 394 | 103 | >36 | > 14000 | 5 | COc1cc(Oc2cc(F)c(F)c(F)c2)ccc1NC(=O)OCc1ccc2c(c1OC)C(=O)N(C1CCC(=O)NC1=O)C2 (centres unmarked) [Example 72, [2-(2,6-dioxopiperidin-3-yl)-4-methoxy-3-oxo-2,3-dihydro-1H-isoindol-5-yl]methyl N-[2-methoxy-4-(3,4,5-trifluorophenoxy)phenyl]carbamate] | 120
86 | 148 | 107 | >95 | > 14000 | 22 | COc1c(COC(=O)Nc2ccc(Oc3ccc(F)cc3Cl)cc2C)ccc2c1C(=O)N(C1CCC(=O)NC1=O)C2 (centres unmarked) [Example 103, [2-(2,6-dioxopiperidin-3-yl)-4-methoxy-3-oxo-2,3-dihydro-1H-isoindol-5-yl]methyl N-[4-(2-chloro-4-fluorophenoxy)-2-methylphenyl]carbamate] | 100
128 | 41 | 108 | >339 | > 14000 | 9 | COc1c(COC(=O)Nc2ccc(Oc3cc(F)c(F)c(F)c3)cc2C)ccc2c1C(=O)N(C1CCC(=O)NC1=O)C2 (centres unmarked) [Example 40, [2-(2,6-dioxopiperidin-3-yl)-4-methoxy-3-oxo-2,3-dihydro-1H-isoindol-5-yl]methyl N-[2-methyl-4-(3,4,5-trifluorophenoxy)phenyl]carbamate] | 110
112 | 15 | 110 | >921 | > 14000 | 7 | CC(C)(O)COc1c(COC(=O)Nc2ccc(Oc3ccc(F)cc3F)cc2F)ccc2c1C(=O)N(C1CCC(=O)NC1=O)C2 (centres unmarked) [Example 163, [2-(2,6-dioxopiperidin-3-yl)-4-(2-hydroxy-2-methylpropoxy)-3-oxo-2,3-dihydro-1H-isoindol-5-yl]methyl N-[4-(2,4-difluorophenoxy)-2-fluorophenyl]carbamate] | 137

The remaining lines, values behind:

Structure (SMILES) | IC50 [1] [nM] | DC50 [2] [nM] | Dmax [2] [%] | Ratio of GSPT1 DC50/Cyclin E1 DC50 [2] | DC50 [3] [nM] | Dmax [3] [%] | Emax [1] [%]
CC(C)Oc1c(COC(=O)Nc2ccc(Oc3ccccc3F)cc2)ccc2c1C(=O)N(C1CCC(=O)NC1=O)C2 (centres unmarked) [Example 121, [2-(2,6-dioxopiperidin-3-yl)-3-oxo-4-(propan-2-yloxy)-2,3-dihydro-1H-isoindol-5-yl]methyl N-[4-(2-fluorophenoxy)phenyl]carbamate] | 40 | 53 | 107 | >263 | > 14000 | 9 | 125
COCCOc1c(COC(=O)Nc2ccc(Oc3ccc(F)c(F)c3)cc2)ccc2c1C(=O)N(C1CCC(=O)NC1=O)C2 (centres unmarked) [Example 168, [2-(2,6-dioxopiperidin-3-yl)-4-(2-methoxyethoxy)-3-oxo-2,3-dihydro-1H-isoindol-5-yl]methyl N-[4-(3,4-difluorophenoxy)phenyl]carbamate] | 19 | 62 | 110 | >226 | > 14000 | 33 | 118
CCOc1c(COC(=O)Nc2ccc(Oc3cccc(Cl)c3)cc2)ccc2c1C(=O)N(C1CCC(=O)NC1=O)C2 (centres unmarked) [Example 54, [2-(2,6-dioxopiperidin-3-yl)-4-ethoxy-3-oxo-2,3-dihydro-1H-isoindol-5-yl]methyl N-[4-(3-chlorophenoxy)phenyl]carbamate] | 624 | 58 | 116 | >241 | > 14000 | 22 | 102
COc1c(COC(=O)Nc2ccc(Oc3ccc4sccc4c3)cc2)ccc2c1C(=O)N(C1CCC(=O)NC1=O)C2 (centres unmarked) [Example 114, [2-(2,6-dioxopiperidin-3-yl)-4-methoxy-3-oxo-2,3-dihydro-1H-isoindol-5-yl]methyl N-[4-(1-benzothiophen-5-yloxy)phenyl]carbamate] | 640 | 282 | 106 | >50 | > 14000 | 29 | 110
O=C1CCC(N2Cc3ccc(COC(=O)Nc4ccc(Oc5ccc(F)c(F)c5)cc4)c(OC4COC4)c3C2=O)C(=O)N1 (centres unmarked) [Example 129, [2-(2,6-dioxopiperidin-3-yl)-4-(oxetan-3-yloxy)-3-oxo-2,3-dihydro-1H-isoindol-5-yl]methyl N-[4-(3,4-difluorophenoxy)phenyl]carbamate] | 187 | 221 | 107 | >63 | > 14000 | 19 | 117
COC(=O)COc1c(COC(=O)Nc2ccc(Oc3ccc(F)c(F)c3)cc2)ccc2c1C(=O)N(C1CCC(=O)NC1=O)C2 (centres unmarked) [Example 174, Methyl 2-({5-[({[4-(3,4-difluorophenoxy)phenyl]carbamoyl}oxy)methyl]-2-(2,6-dioxopiperidin-3-yl)-3-oxo-2,3-dihydro-1H-isoindol-4-yl}oxy)acetate] | 473 | 204 | 100 | >69 | > 14000 | 16 | 99
COc1cccc(Oc2ccc(NC(=O)OCc3ccc4c(c3OC)C(=O)N(C3CCC(=O)NC3=O)C4)cc2)c1 (centres unmarked) [Example 32, [2-(2,6-dioxopiperidin-3-yl)-4-methoxy-3-oxo-2,3-dihydro-1H-isoindol-5-yl]methyl N-[4-(3-methoxyphenoxy)phenyl]carbamate] | 498 | 67 | 96 | >208 | > 14000 | 24 | 83
O=C1CCC(N2Cc3ccc(COC(=O)Nc4ccc(Oc5cccc(F)c5F)cc4)c(Oc4ccccc4)c3C2=O)C(=O)N1 (centres unmarked) [Example 68, [2-(2,6-dioxopiperidin-3-yl)-3-oxo-4-phenoxy-2,3-dihydro-1H-isoindol-5-yl]methyl N-[4-(2,3-difluorophenoxy)phenyl]carbamate] | 83 | 179 | 107 | >78 | > 14000 | 16 | 127
COc1c(COC(=O)Nc2ccc(Oc3ccc4ccsc4c3)cc2)ccc2c1C(=O)N(C1CCC(=O)NC1=O)C2 (centres unmarked) [Example 115, [2-(2,6-dioxopiperidin-3-yl)-4-methoxy-3-oxo-2,3-dihydro-1H-isoindol-5-yl]methyl N-[4-(1-benzothiophen-6-yloxy)phenyl]carbamate] | 247 | 217 | 108 | 48 | 10300 | 63 | 114
O=C1CCC(N2Cc3ccc(COC(=O)Nc4ccc(Oc5ccc(F)c(F)c5)cc4)c(Oc4ccccc4)c3C2=O)C(=O)N1 (centres unmarked) [Example 63, [2-(2,6-dioxopiperidin-3-yl)-3-oxo-4-phenoxy-2,3-dihydro-1H-isoindol-5-yl]methyl N-[4-(3,4-difluorophenoxy)phenyl]carbamate] | 136 | 113 | 104 | >124 | > 14000 | 41 | 121
